Target: T1, 5α-reductase (Homo sapiens, UniProt P31213)
T1 construct: Homogenates of human prostates obtained by radical prostatectomies; from tissue; host or cells: human prostate from radical prostatectomy for benign hyperplasia; resuspended 140,000 g pellet of the homogenate
T1 sequence (P31213 1-254): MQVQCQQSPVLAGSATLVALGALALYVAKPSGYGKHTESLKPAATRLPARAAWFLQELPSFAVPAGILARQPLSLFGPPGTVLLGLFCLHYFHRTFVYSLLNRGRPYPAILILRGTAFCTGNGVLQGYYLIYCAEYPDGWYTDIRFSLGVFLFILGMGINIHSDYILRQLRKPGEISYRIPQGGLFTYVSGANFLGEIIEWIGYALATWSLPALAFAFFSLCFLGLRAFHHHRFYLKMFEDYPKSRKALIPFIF
Assay: 5α-reductase activity test in vitro, human prostate homogenate, testosterone substrate, HPLC measurement of 5α-reduced metabolites
Format: biochemical
Settings: homogenates of human prostates (BHP), pH 5.5, 37° C., 30 minutes, read-out: IC50 for inhibition of the 5α-reductase activity of the control
Method: The test for measuring the 5α-reductase activity was carried cut in vitro by incubating the enzyme and its substrate (testosterone) and by measuring by HPLC chromatography the amount of 5α-reduced metabolites formed (dihydrotestosterone (DHT) and 5α-androstane-diol). Homogenates of human prostates obtained by radical prostatectomies due to benign hyperplasia of the prostate (BHP) were used.
The prostate was collected straight after leaving the operating theater suite and packed in aluminum paper placed in a container filled with dry ice. At the laboratory, if the homogenate was not prepared immediately, the prostate could be stored at -80° C. […]
b) Mixture of "unlabelled" testosterone and "tritiated testosterone" with an isotopic dilution of 100: To obtain a 1 mM solution of testosterone, 2.88 mg of "unlabelled" testosterone were weighed out which was dissolved in 10 ml of ethanol. […] Substrate (S) was ready. […]
The amounts of metabolites produced during the incubation were measured by separating the compounds formed by reversed-phase high performance liquid chromatography (HPLC). […] The extract collected after extraction was injected automatically onto the HPLC system and by the linear radioactivity measurement system (Berthold), only the radioactive metabolites, formed from the testosterone labelled with the substrate, were evaluated. […]

oenotheine B gave an IC50 of 22 µM.
